Assay results published in ChEMBL document CHEMBL5150046, “Discovery of a Series of 5-Amide-1H-pyrazole-3-carboxyl Derivatives as Potent P2Y14R Antagonists with Anti-Inflammatory Characters” (J Med Chem, 2022).
pIC50: −log10 of the molar value. Values after ≈ are worked out from the molar mass of the structure shown. Active and inactive are the calls of the source. The calls are words filed in the database; no cut-off is given here.

How the values were obtained:
[1] = Half life in Sprague-Dawley rat at 2.5 mg/kg, iv measured for 24 hrs; format: ADME, organism-based; conditions: in vivo
[2] = Aqueous solubility of the compound in simulated intestinal fluid without trypsin at pH 6.8 incubated for 24 hrs by UV-3000 absorption spectrometry analysis; format: physicochemical; conditions: for solubility: simulated gi fluid, pH 6.8, 24 h
[3] = Tmax in Sprague-Dawley rat at 10 mg/kg, po measured for 24 hrs; format: ADME, organism-based; conditions: in vivo
[4] = Metabolic stability in human liver microsomes assessed as elimination rate constant at 2 ug/ml preincubated for 5 mins followed by NADPH addition and measured upto 45 mins by LC-MS/MS analysis; format: ADME, Microsome; conditions: dose 2 µg/ml, time < 50 min
[5] = Half life in Sprague-Dawley rat at 10 mg/kg, po measured for 24 hrs; format: ADME, organism-based; conditions: in vivo
[6] = Aqueous solubility of the compound in PBS at pH 7.4 incubated for 24 hrs by UV-3000 absorption spectrometry analysis; format: physicochemical; conditions: for solubility at 24 h: PBS, pH 7.4
[7] = Metabolic stability in rat liver microsomes assessed as half life at 2 ug/ml preincubated for 5 mins followed by NADPH addition and measured upto 45 mins by LC-MS/MS analysis; format: ADME, Microsome; conditions: dose 2 µg/ml, time < 50 min
[8] = Metabolic stability in rat liver microsomes assessed as elimination rate constant at 2 ug/ml preincubated for 5 mins followed by NADPH addition and measured upto 45 mins by LC-MS/MS analysis; format: ADME, Microsome; conditions: dose 2 µg/ml, time < 50 min
[9] = Clearance in Sprague-Dawley rat at 2.5 mg/kg, iv measured for 24 hrs; format: ADME, organism-based; conditions: in vivo
[10] = Oral bioavailability in Sprague-Dawley rat at 10 mg/kg measured for 24 hrs; format: ADME, organism-based; conditions: in vivo
[11] = Clearance in Sprague-Dawley rat at 10 mg/kg, po measured for 24 hrs; format: ADME, organism-based; conditions: in vivo
[12] = Metabolic stability in human liver microsomes assessed as half life at 2 ug/ml preincubated for 5 mins followed by NADPH addition and measured upto 45 mins by LC-MS/MS analysis; format: ADME, Microsome; conditions: dose 2 µg/ml, time < 50 min
[13] = AUC (0 to infinity) in Sprague-Dawley rat at 10 mg/kg, po measured for 24 hrs; format: ADME, organism-based; set-up: dose 10 mg/kg, time 24 hrs, route po; conditions: in vivo
[14] = AUC (0 to infinity) in Sprague-Dawley rat at 2.5 mg/kg, iv measured for 24 hrs; format: ADME, organism-based; set-up: time 24 hrs, dose 2.5 mg/kg, route iv; conditions: in vivo
[15] = Cmax in Sprague-Dawley rat at 10 mg/kg, po measured for 24 hrs; format: ADME, organism-based; set-up: time 24 hrs, dose 10 mg/kg, route po; conditions: in vivo
[16] = Aqueous solubility of the compound in simulated gastric fluid without pepsin at pH 1.2 incubated for 24 hrs by UV-3000 absorption spectrometry analysis; format: physicochemical; conditions: for solubility: simulated gi fluid, pH 1.2, 24 h
[17] = Aqueous solubility of the compound in double distilled water at pH 7 incubated for 24 hrs by UV-3000 absorption spectrometry analysis; format: physicochemical; conditions: for solubility at 24 h: double distilled water, pH 7
[18] = molecular target: T1, P2Y purinoceptor 14 (Homo sapiens) (UniProt Q15391)
T1 sequence (whole entry): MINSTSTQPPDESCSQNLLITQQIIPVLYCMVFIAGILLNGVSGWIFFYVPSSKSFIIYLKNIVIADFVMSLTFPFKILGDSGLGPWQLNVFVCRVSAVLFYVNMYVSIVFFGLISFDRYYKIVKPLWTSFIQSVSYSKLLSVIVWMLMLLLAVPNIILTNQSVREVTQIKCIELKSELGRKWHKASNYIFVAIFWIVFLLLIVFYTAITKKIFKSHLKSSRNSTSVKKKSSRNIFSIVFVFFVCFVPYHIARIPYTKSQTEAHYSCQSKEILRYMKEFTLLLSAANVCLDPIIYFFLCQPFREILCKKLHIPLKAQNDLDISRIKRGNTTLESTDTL

[19] = molecular target: T2, P2Y purinoceptor 13 (Homo sapiens, UniProt Q9BPV8); assay: Antagonist activity at human P2Y13R expressed in HEK293 cells assessed as inhibition of 2MeSADP-induced cAMP production preincubated for 0.5 hrs followed by 2MeSADP stimulation by cAMP-glo assay; format: functional, cell-based
T2 sequence (Q9BPV8 whole entry): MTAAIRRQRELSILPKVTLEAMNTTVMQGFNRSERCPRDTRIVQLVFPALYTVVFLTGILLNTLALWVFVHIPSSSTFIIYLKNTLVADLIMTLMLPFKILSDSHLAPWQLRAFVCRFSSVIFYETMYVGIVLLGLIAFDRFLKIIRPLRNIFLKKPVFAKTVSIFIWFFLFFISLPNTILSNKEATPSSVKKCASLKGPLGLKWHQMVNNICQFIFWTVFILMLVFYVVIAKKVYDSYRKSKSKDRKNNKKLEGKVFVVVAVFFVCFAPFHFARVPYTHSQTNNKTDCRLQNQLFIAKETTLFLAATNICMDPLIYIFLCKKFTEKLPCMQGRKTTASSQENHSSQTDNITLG

[20] = molecular target: T3, P2Y purinoceptor 14 (Homo sapiens, UniProt Q15391); assay: Antagonist activity at P2Y14R (unknown origin) expressed in HEK293 cells assessed as inhibition of forskolin-stimulated cAMP accumulation incubated in presence of IBMX by cAMP-glo assay; format: functional, cell-based
T3 sequence (Q15391 whole entry): T1 sequence (whole entry)

[21] = (§1) Inhibition of caspase-1 mediated pyroptosis in LPS/ATP induced PMA-differentiated human THP-1 cells assessed as dead cells at 10 uM pretreated for 24 hrs followed by LPS addition for 3 hrs and further incubated for 1 hr with ATP by caspase-1/PI staining based flow cytometry analysis (reference value: 22.5%); format: functional; set-up: scale not given: the % may be the effect or the level left; conditions: time 28 hrs
[22] = as §1, with “late apoptotic” for “dead”, “16.3%)” for “22.5%)”; format: functional; set-up: scale not given: the % may be the effect or the level left; conditions: time 28 hrs
[23] = as §1, with “live” for “dead”, “43.3%)” for “22.5%)”; format: functional; set-up: scale not given: the % may be the effect or the level left; conditions: time 28 hrs
[24] = molecular target: P2Y purinoceptor 12 (Homo sapiens, UniProt Q9H244); assay: Antagonist activity at P2Y12R (unknown origin) expressed in CHO cells assessed as inhibition of forskolin-stimulated cAMP accumulation incubated for 15 mins in presence of IBMX by chromatography; format: functional, cell-based
Chain of P2Y purinoceptor 12 (Q9H244 whole entry): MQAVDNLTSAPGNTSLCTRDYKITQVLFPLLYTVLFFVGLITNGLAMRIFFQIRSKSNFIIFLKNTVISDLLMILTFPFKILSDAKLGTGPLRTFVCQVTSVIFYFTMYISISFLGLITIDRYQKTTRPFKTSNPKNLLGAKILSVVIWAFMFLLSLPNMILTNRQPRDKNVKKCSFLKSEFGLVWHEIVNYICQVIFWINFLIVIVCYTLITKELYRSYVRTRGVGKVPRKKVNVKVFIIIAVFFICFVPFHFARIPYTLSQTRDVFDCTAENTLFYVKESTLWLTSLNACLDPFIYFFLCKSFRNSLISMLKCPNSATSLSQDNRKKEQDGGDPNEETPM

[25] = as §1, with “early apoptotic” for “dead”, “17.9%)” for “22.5%)”; format: functional; set-up: scale not given: the % may be the effect or the level left; conditions: time 28 hrs
[26] = molecular target: P2Y purinoceptor 4 (Homo sapiens, UniProt P51582)
Chain of P2Y purinoceptor 4 (P51582 whole entry): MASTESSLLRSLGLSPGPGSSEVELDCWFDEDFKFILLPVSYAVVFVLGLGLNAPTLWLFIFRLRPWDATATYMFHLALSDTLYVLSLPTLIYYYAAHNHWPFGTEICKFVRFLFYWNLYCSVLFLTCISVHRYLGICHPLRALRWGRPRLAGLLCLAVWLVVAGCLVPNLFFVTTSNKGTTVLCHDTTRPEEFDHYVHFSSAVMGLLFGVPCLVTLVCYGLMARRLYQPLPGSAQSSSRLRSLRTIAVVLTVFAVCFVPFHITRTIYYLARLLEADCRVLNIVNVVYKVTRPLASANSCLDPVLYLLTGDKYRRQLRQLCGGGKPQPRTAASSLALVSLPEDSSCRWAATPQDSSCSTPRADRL

[27] = molecular target: P2Y purinoceptor 6 (Homo sapiens, UniProt Q15077)
Chain of P2Y purinoceptor 6 (Q15077 whole entry): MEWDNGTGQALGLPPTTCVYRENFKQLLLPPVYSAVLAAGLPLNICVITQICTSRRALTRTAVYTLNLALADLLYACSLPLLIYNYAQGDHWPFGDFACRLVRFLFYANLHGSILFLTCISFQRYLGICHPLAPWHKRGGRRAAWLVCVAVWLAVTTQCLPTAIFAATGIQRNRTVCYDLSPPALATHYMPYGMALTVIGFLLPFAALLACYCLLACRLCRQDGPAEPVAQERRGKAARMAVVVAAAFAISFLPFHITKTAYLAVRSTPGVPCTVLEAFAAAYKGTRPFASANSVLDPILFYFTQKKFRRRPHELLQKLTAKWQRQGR

[28] = system: Mus musculus; assay: Antiinflammatory activity in ICR mouse model of LPS-induced acute peritonitis assessed as reduction in IL-6 level in peritoneal fluid at 5 mg/kg, ip pretreated for 1 hr followed by LPS stimulation and measured after 6 hrs by qRT-PCR analysis; format: functional, organism-based; conditions: time 7.0 hrs
[29] = system: Mus musculus; assay: Antiinflammatory activity in ICR mouse model of LPS-induced acute peritonitis assessed as reduction in TNF-alpha level in peritoneal fluid at 5 mg/kg, ip pretreated for 1 hr followed by LPS stimulation and measured after 6 hrs by qRT-PCR analysis; format: functional, organism-based; conditions: time 7.0 hrs
[30] = system: Mus musculus; assay: Antiinflammatory activity in ICR mouse model of LPS-induced acute peritonitis assessed as reduction in IL-1beta level in peritoneal fluid at 5 mg/kg, ip pretreated for 1 hr followed by LPS stimulation and measured after 6 hrs by qRT-PCR analysis; format: functional, organism-based; conditions: time 7.0 hrs
[31] = HEK293, filed as antagonist, dose 100.0 nM

Cc1ccc(C(=O)Nc2cc(C(=O)O)nn2Cc2ccc(F)cc2)cc1
half-life [1]: 1.82 h
solubility [2]: 202.7 µg/mL (≈ 574 µM)
Tmax [3]: 0.25 h
k el at 0.75 h, 2 ug/ml [4]: 8.33e-06 s⁻¹
half-life [5]: 4.57 h
solubility ([6]; buffer, pH 7.4, 24 h): 318.7 µg/mL (≈ 902 µM)
half-life at 2 ug/ml [7]: 2.88 h
k el at 0.75 h, 2 ug/ml [8]: 6.67e-05 s⁻¹
clearance [9]: 16.3 mL/min/kg
bioavailability [10]: 43.2%
CL/F [11]: 32.5 mL/min/kg
half-life at 2 ug/ml [12]: 21 h
AUC(0-inf) [13]: 4500 ng·h/mL
AUC(0-inf) [14]: 2600 ng·h/mL
Cmax [15]: 1100 ng/mL
solubility [16]: 85.1 µg/mL (≈ 241 µM)
solubility ([17]; buffer, pH 7, 24 h): 88.5 µg/mL (≈ 250 µM)

O=C(Nc1cc(C(=O)O)nn1Cc1ccc(F)cc1)c1cccc(F)c1
inhibition ([18]; HEK293, dose 100.0 nM): 25.2%

CCCSc1nc(N[C@@H]2C[C@H]2c2ccc(F)c(F)c2)c2nnn([C@@H]3C[C@H](OCCO)[C@@H](O)[C@H]3O)c2n1 [TICAGRELOR]
pIC50 [19]: 5.85

Cc1ccc(C(=O)Nc2cc(C(=O)O)nn2Cc2ccc(F)cc2)cn1
inhibition [18, 31]: 53.7%

Cc1ccc(C(=O)Nc2cc(C(=O)O)nn2Cc2cc(F)cc(F)c2)cc1
inhibition [18, 31]: 79.8%
pIC50 [20]: 7.39

Cc1ccc(C(=O)Nc2cc(CC(=O)O)nn2Cc2ccc(F)cc2)cc1
inhibition [18, 31]: 98.3%
pIC50 [20]: 7.85

Cc1ccc(CCC(=O)Nc2cc(C(=O)O)nn2Cc2ccc(F)cc2)cc1
inhibition ([18]; HEK293, dose 100.0 nM): 14.4%

Cc1ccc(C(=O)Nc2cc(C(=O)O)nn2Cc2cc(F)c(F)c(F)c2)cc1
inhibition [18, 31]: 90.3%
pIC50 [20]: 8.40

O=C(O)c1cc(NC(=O)c2ccco2)n(Cc2ccc(F)cc2)n1
inhibition [18, 31]: 76%

O=C(O)c1cc(-c2ccc(C3CCNCC3)cc2)c2ccc(-c3ccc(C(F)(F)F)cc3)cc2c1 [PPTN]
Activity [21]: 11.2%
solubility at 24 h ([2]; simulated intestinal fluid without trypsin, pH 6.8): < 5 µg/mL
solubility at 24 h [6]: < 5 µg/mL
bioavailability [10]: 5%
half-life at 2 ug/ml [12]: 0.767 h
Activity [22]: 4.33%
Activity [23]: 79.8%
solubility at 24 h ([16]; simulated gastric fluid without pepsin, pH 1.2): < 5 µg/mL
solubility at 24 h [17]: < 5 µg/mL
pIC50 [24]: < 5.00
Activity [25]: 4.68%

Cc1ccc(CC(=O)Nc2cc(C(=O)O)nn2Cc2ccc(F)cc2)cc1
inhibition ([18]; HEK293, dose 100.0 nM): 28.5%

CC(=O)c1ccc(Cn2nc(C(=O)O)cc2NC(=O)c2ccc(C)cc2)cc1
inhibition [18, 31]: 66.3%
pIC50 [20]: 7.17

O=C(Nc1cc(C(=O)O)nn1Cc1ccc(F)cc1)c1ccncc1
inhibition ([18]; HEK293, dose 100.0 nM): 32.5%

Cc1ccc(C(=O)Nc2cc(C(=O)O)nn2Cc2ccc(F)cc2)o1
inhibition [18, 31]: 43.6%

CC(=O)c1ccc(C(=O)Nc2cc(C(=O)O)nn2Cc2ccc(F)cc2)cc1
inhibition [18, 31]: 98.2%
pIC50 [20]: 8.42

CCc1ccc(C(=O)Nc2cc(C(=O)O)nn2Cc2ccc(F)cc2)cc1
inhibition [18, 31]: 97.9%
pIC50 [20]: 8.33

Cc1ccc(C(=O)Nc2cc(C(=O)O)nn2Cc2ccccc2C(F)(F)F)cc1
inhibition [18, 31]: 93%
pIC50 [20]: 8.32

O=C(C1CC1)N1CCc2cc(Br)c(S(=O)(=O)Nc3ccc(Cl)c(C(F)(F)F)c3)cc21
pIC50 [26]: 4.87

Cc1ccc(C(=O)Nc2cc(C(=O)O)nn2Cc2ccccc2F)cc1
inhibition [18, 31]: 58.5%
pIC50 [20]: 6.96

O=C(Nc1cc(C(=O)O)nn1Cc1ccc(F)cc1)c1ccccc1
inhibition [18, 31]: 77.4%

O=C(Nc1cc(C(=O)O)nn1Cc1ccc(F)cc1)c1cccnc1
inhibition ([18]; HEK293, dose 100.0 nM): 27.4%

O=C(Nc1cc(C(=O)O)nn1Cc1ccc(F)cc1)c1ccc(C(F)(F)F)cc1
inhibition ([18]; HEK293, dose 100.0 nM): 31.4%

CC(C)(C)c1ccc(C(=O)Nc2cc(C(=O)O)nn2Cc2ccc(F)cc2)cc1
inhibition ([18]; HEK293, dose 100.0 nM): 3.05%

Cc1ccc(C(=O)Nc2cc(C(=O)O)nn2Cc2cccc(F)c2)cc1
inhibition [18, 31]: 89%
pIC50 [20]: 8.27

CCOC(=O)c1cc(NC(=O)c2ccc(C)cc2)n(Cc2ccc(F)cc2)n1
inhibition [18, 31]: 68.3%

Cc1ccccc1C(=O)Nc1cc(C(=O)O)nn1Cc1ccc(F)cc1
inhibition ([18]; HEK293, dose 100.0 nM): 28.5%

Cc1ccc(C(=O)Nc2cc(C(=O)O)nn2Cc2ccc(F)cc2)s1
inhibition [18, 31]: 77.9%

S=C=Nc1cccc(NC(=S)NCCCCNC(=S)Nc2cccc(N=C=S)c2)c1
pIC50 [27]: 4.40

N#Cc1ccc(C(=O)Nc2cc(C(=O)O)nn2Cc2ccc(F)cc2)cc1
inhibition ([18]; HEK293, dose 100.0 nM): 22.4%

O=C(O)c1cc(NC(=O)c2ccccc2F)n(Cc2ccc(F)cc2)n1
inhibition ([18]; HEK293, dose 100.0 nM): 20.1%

C[C@@H]1C[C@H]2[C@@H]3CCC4=CC(=O)C=C[C@]4(C)[C@@]3(F)[C@@H](O)C[C@]2(C)[C@@]1(O)C(=O)CO
Activity [28]: Active
Activity [29]: Active
Activity [30]: Active

Cc1ccc(C(=O)Nc2cc(C(=O)O)cc(-c3ccoc3)c2)cc1
solubility [2]: 471.1 µg/mL (≈ 1470 µM)
solubility at 24 h [6]: 878 µg/mL (≈ 2730 µM)
solubility [16]: 69.1 µg/mL (≈ 215 µM)
solubility at 24 h [17]: 77.6 µg/mL (≈ 241 µM)
